Here are results for 22 compounds from PubChem BioAssay AID330 (DTP/NCI, 2004).

The subject of the assay is P388 leukemia ip, CD2F1 mice, survival T/C. As to the kind of experiment: NCI In Vivo Anticancer Drug Screen. Data for tumor model P388 Leukemia (intraperitoneal) in CD2F1 (CDF1) mice. As to conditions: endpoint: median survival time, higher = longer survival. In outline:
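Mice carrying the transplanted tumor received test compound or vehicle. Survival was recorded in each group, and the value is the treated-group measurement divided by that of the vehicle-treated control group.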

Setting [1] is: dose: 50.0 mg/kg/injection, schedule: Q01DX005 (ip), vehicle: saline with Tween-80.
The mark [2] stands for this setting: dose: 100.0 mg/kg/injection, schedule: Q01DX005 (ip), vehicle: saline with Tween-80.
The mark [3] stands for this setting: dose: 50.0 mg/kg/injection, schedule: Q01DX009 (ip), vehicle: Klucel (hydroxypropylcellulose) (HPC).
[4] abbreviates: dose: 100.0 mg/kg/injection, schedule: Q01DX009 (ip), vehicle: Klucel (hydroxypropylcellulose) (HPC).
The mark [5] stands for this setting: dose: 50.0 mg/kg/injection, schedule: Q04DX003 (ip), vehicle: saline.
Where [6] appears, read: dose: 200.0 mg/kg/injection, schedule: Q01DX005 (ip), vehicle: saline with Tween-80.

“And” between values parts separate entries of the source, which are not always exact repeats. Identical values can stand only once. Inconclusive results and toxic doses are left out.

Regarding `COC(=O)C1(C)C(OC(C)=O)CC2C3C(CC4CC(OC(C)=O)CCC42C)OC(=O)CC31` (centres undefined), the T/C reads like this: (dose: 0.25 mg/kg/injection, schedule: Q01DX009 (ip), vehicle: distilled water + Tween-80) 99 % of control; (dose: 0.5 mg/kg/injection, schedule: Q01DX009 (ip), vehicle: distilled water + Tween-80) 101 % of control; (dose: 1.0 mg/kg/injection, schedule: Q01DX009 (ip), vehicle: distilled water + Tween-80) 102 % of control; (dose: 2.0 mg/kg/injection, schedule: Q01DX009 (ip), vehicle: distilled water + Tween-80) 104 % of control; (dose: 4.0 mg/kg/injection, schedule: Q01DX009 (ip), vehicle: distilled water + Tween-80) 100 % of control and 104 % of control; (dose: 8.0 mg/kg/injection, schedule: Q01DX009 (ip), vehicle: distilled water + Tween-80) 106 % of control and 111 % of control. The T/C is 94 % of control (dose: 16.0 mg/kg/injection, schedule: Q01DX009 (ip), vehicle: distilled water + Tween-80); 87 % of control (dose: 32.0 mg/kg/injection, schedule: Q01DX009 (ip), vehicle: distilled water + Tween-80); 100 % of control (dose: 64.0 mg/kg/injection, schedule: Q01DX009 (ip), vehicle: distilled water + Tween-80).

For the compound `Cc1nc(N)nc(N)c1-c1ccc(N)cc1`, the T/C by setting is: (dose: 12.5 mg/kg/injection, schedule: Q01DX005 (ip), vehicle: saline with Tween-80) 105 % of control; (dose: 25.0 mg/kg/injection, schedule: Q01DX005 (ip), vehicle: saline with Tween-80) 103 % of control; under setting [1], 98 % of control and 105 % of control.

As for `O=C1OC(C2=CC(=O)c3ccccc3C2=O)C(Cl)=C1Cl` (centres undefined), the T/C runs as follows: under setting [1], 121 % of control; under setting [2], 109 % of control.

As for `C=C1SC(=Nc2cccc(OC)c2)N(c2nc(Cl)nc(Cl)n2)C12CCCCC2`, the T/C is 100 % of control (dose: 50.0 mg/kg/injection, schedule: Q01DX009 (ip), vehicle: saline); 101 % of control (dose: 100.0 mg/kg/injection, schedule: Q01DX009 (ip), vehicle: saline); 100 % of control (dose: 200.0 mg/kg/injection, schedule: Q01DX009 (ip), vehicle: saline).

As for `CCN(CC)CCOC(=O)c1ccc(N)c2ccccc12`, the T/C under setting [1] was 103 % of control and the T/C under setting [2] was 100 % of control.

With `Cc1cc(C)nc(NS(=O)(=O)c2ccc(Nc3c4ccccc4nc4ncccc34)cc2)n1`, the T/C by setting is: (dose: 60.0 mg/kg/injection, schedule: Q01DX005 (ip), vehicle: saline with Tween-80) 97 % of control; (dose: 120.0 mg/kg/injection, schedule: Q01DX005 (ip), vehicle: saline with Tween-80) 90 % of control; (dose: 240.0 mg/kg/injection, schedule: Q01DX005 (ip), vehicle: saline with Tween-80) 90 % of control.

Consider `CC(C)Oc1ccc(C(=O)NS(=O)(=O)c2ccc(N=Nc3c(O)n(-c4ccccc4)n(-c4ccccc4)c3=O)cc2)cc1`, for which the T/C under setting [3] was 94 % of control; the T/C under setting [4] is 91 % of control; the T/C (dose: 200.0 mg/kg/injection, schedule: Q01DX009 (ip), vehicle: Klucel (hydroxypropylcellulose) (HPC)) was 93 % of control.

As for `CSC(SC)=C(C#N)c1nc(SC)c(C#N)c(SC)n1`, the T/C under setting [5] was 102 % of control and the T/C (dose: 100.0 mg/kg/injection, schedule: Q04DX003 (ip), vehicle: saline) was 112 % of control.

As to `CCN(CC)CCCC(C)Nc1nc(-c2ccccc2)nc2ccccc12` (centres undefined), the T/C is, setting by setting: (dose: 50.0 mg/kg/injection, schedule: Q01DX005 (ip), vehicle: saline) 99 % of control; (dose: 100.0 mg/kg/injection, schedule: Q01DX005 (ip), vehicle: saline) 101 % of control; (dose: 200.0 mg/kg/injection, schedule: Q01DX005 (ip), vehicle: saline) 110 % of control.

In the case of `COc1ccc(/C=C/C2=CC(=O)CC(/C=C/c3ccc(OC)c(OC)c3)C2)cc1OC` (centres undefined), the T/C is 89 % of control (dose: 100.0 mg/kg/injection, schedule: Q01DX001 (ip), vehicle: Klucel (hydroxypropylcellulose) (HPC)); 100 % of control (dose: 200.0 mg/kg/injection, schedule: Q01DX001 (ip), vehicle: Klucel (hydroxypropylcellulose) (HPC)); 97 % of control (dose: 400.0 mg/kg/injection, schedule: Q01DX001 (ip), vehicle: Klucel (hydroxypropylcellulose) (HPC)).

On to `FC(F)(F)C1=C(C(F)(F)F)SP23(OCCC(CO2)O3)S1` (centres undefined), for which the T/C by setting is: (dose: 12.5 mg/kg/injection, schedule: Q01DX009 (ip), vehicle: Klucel (hydroxypropylcellulose) (HPC)) 107 % of control and 108 % of control; (dose: 25.0 mg/kg/injection, schedule: Q01DX009 (ip), vehicle: Klucel (hydroxypropylcellulose) (HPC)) 106 % of control and 114 % of control; under setting [3], 109 % of control and 114 % of control; under setting [4], 107 % of control and 116 % of control.

For the compound `CC(=O)CC(=O)c1ccc(Br)cc1.CC(=O)CC(=O)c1ccc(Br)cc1.[Ni]`, the T/C is, setting by setting: (dose: 100.0 mg/kg/injection, schedule: Q01DX001 (ip), vehicle: saline with Tween-80) 90 % of control; (dose: 200.0 mg/kg/injection, schedule: Q01DX001 (ip), vehicle: saline with Tween-80) 87 % of control; (dose: 400.0 mg/kg/injection, schedule: Q01DX001 (ip), vehicle: saline with Tween-80) 90 % of control.

Turning to `O=C1C2C3C=CC(O3)C2C(=O)N1/N=C/c1ccc2c(c1)OCO2` (centres undefined), the T/C under setting [1] was 97 % of control, the T/C under setting [2] was 102 % of control and the T/C under setting [6] is 93 % of control.

For `O=C([O][Bi]([c]1ccccc1)[c]1ccccc1)c1ccccc1`, the T/C (dose: 6.25 mg/kg/injection, schedule: Q01DX005 (ip), vehicle: Klucel (hydroxypropylcellulose) (HPC)) was 113 % of control; the T/C (dose: 12.5 mg/kg/injection, schedule: Q01DX005 (ip), vehicle: Klucel (hydroxypropylcellulose) (HPC)) is 106 % of control; the T/C (dose: 25.0 mg/kg/injection, schedule: Q01DX005 (ip), vehicle: Klucel (hydroxypropylcellulose) (HPC)) is 102 % of control and 106 % of control; the T/C (dose: 50.0 mg/kg/injection, schedule: Q01DX005 (ip), vehicle: Klucel (hydroxypropylcellulose) (HPC)) was 122 % of control.

For the compound `CCOC(=O)C1=C(C(=O)C(C)(C)C)C(c2ccc([N+](=O)[O-])cc2)C(C(=O)C(C)(C)C)=C(C(=O)OCC)N1`, the T/C (dose: 60.0 mg/kg/injection, schedule: Q01DX005 (ip), vehicle: Klucel (hydroxypropylcellulose) (HPC)) is 103 % of control; the T/C (dose: 120.0 mg/kg/injection, schedule: Q01DX005 (ip), vehicle: Klucel (hydroxypropylcellulose) (HPC)) was 94 % of control; the T/C (dose: 240.0 mg/kg/injection, schedule: Q01DX005 (ip), vehicle: Klucel (hydroxypropylcellulose) (HPC)) is 103 % of control.

In the case of `COc1c2occc2c(CSC(=N)N)c2ccc(=O)oc12`, the T/C (dose: 25.0 mg/kg/injection, schedule: Q01DX001 (ip), vehicle: saline) was 105 % of control; the T/C (dose: 50.0 mg/kg/injection, schedule: Q01DX001 (ip), vehicle: saline) is 100 % of control; the T/C (dose: 100.0 mg/kg/injection, schedule: Q01DX001 (ip), vehicle: saline) is 100 % of control.

Turning to `Nc1nc2nc(-c3ccccc3)nc(N)c2nc1C(=O)NN1CCCCC1`, the T/C reads like this: (dose: 37.5 mg/kg/injection, schedule: Q01DX009 (ip), vehicle: saline with Tween-80) 100 % of control; (dose: 75.0 mg/kg/injection, schedule: Q01DX009 (ip), vehicle: saline with Tween-80) 87 % of control; (dose: 150.0 mg/kg/injection, schedule: Q01DX009 (ip), vehicle: saline with Tween-80) 100 % of control.

In the case of `CCCCCCCCCC(O)CCCCCCCCC`, the T/C (dose: 100.0 mg/kg/injection, schedule: Q04DX003 (ip), vehicle: other) was 100 % of control; the T/C (dose: 200.0 mg/kg/injection, schedule: Q04DX003 (ip), vehicle: other) was 90 % of control; the T/C (dose: 400.0 mg/kg/injection, schedule: Q04DX003 (ip), vehicle: other) is 90 % of control.

For `CC([NH-])C[NH-].[I][Pt+2][I]` (centres undefined), the T/C (dose: 100.0 mg/kg/injection, schedule: Q04DX002 (ip), vehicle: saline with Tween-80) is 154 % of control and 151 % of control.

Regarding `NC(Cc1cccc(F)c1)c1nn[nH]n1` (centres undefined), the T/C is 100 % of control (dose: 50.0 mg/kg/injection, schedule: Q04DX003 (ip), vehicle: saline with Tween-80) and 93 % of control (dose: 100.0 mg/kg/injection, schedule: Q04DX003 (ip), vehicle: saline with Tween-80).

For `Cc1ccc2c(c1)C(=O)c1c(ccc3ccccc13)C2=O`, the T/C was 95 % of control under setting [1], 100 % of control under setting [2] and 104 % of control under setting [6].

In the case of `CC(C)CC(NC(=O)OCC[P+](c1ccccc1)(c1ccccc1)c1ccccc1)C(=O)O` (centres undefined), the T/C was 102 % of control (dose: 6.25 mg/kg/injection, schedule: Q04DX003 (ip), vehicle: saline); 105 % of control (dose: 12.5 mg/kg/injection, schedule: Q04DX003 (ip), vehicle: saline); 112 % of control (dose: 25.0 mg/kg/injection, schedule: Q04DX003 (ip), vehicle: saline); 121 % of control under setting [5].
